Values joined by “and” are separate entries in the source; they are usually repeats but may differ in a detail not shown here. Equal entries are not always repeated. Where two headings read alike, the source gives them in different places.
Assays:
rats [1] = assay: In vivo hypnotic/anesthetic activity, time to recovery of righting reflex; set-up: species or system rat; conditions: for Anesthesia Activity (Time to awakening, min): rats, tail vein injection in DMSO, 28 μmol/kg (5 mg/kg for propofol); for Time to Awakening (h) [mean ± SD, (N)] / time rats were asleep at LD10: rat
Method: (§1) To determine the binding constant (KD) of propofol and its analogs for GABAA Cl channel, binding was determined as in Example 25 in presence of increasing concentration of propofol and the KD determined graphically using the Hill plots. In vivo hypnotic activity was determined as follows. Drugs solubilized in DMSO were administered to rats by tail vein injection (N=5 rats per group). A dose level of 28 μmol/kg (5 mg/kg for propofol) was used to compensate for differences in molecular weight of the analogs. Anesthetic activity in vivo was determined as time to recovery of righting reflex following administration of the compounds.
(§2) Dose escalation experiment was performed in rat in order to compare the toxicity and the pharmacodynamic of CT8 against propofol. Drugs solubilized in DMSO were administered to rats (5 rats per group). Anesthetic activity in vivo was determined as time to recovery of righting reflex. Mortality was also monitored and the LD50 curves for propofol and CT8 constructed. In order to adjust for the differences in molecular weight between the two compounds, μmol/kg dose was used.

[2] = rat; for V1 / V2: single i.v. bolus in DMSO, propofol 5 mg/kg, CT8 10 mg/kg
GABAA Cl channel = assay: Competitive binding assay, GABAA Cl channel (3H-TBOB), bovine hippocampus; conditions: for IC50: read-out: GABAA CI Channel Binding (IC50); for Percent Inhibition, chloride channel: propofol at 10^-4 M
Method: (§3) The propofol binding site on GABAA was defined using a series of competitive binding assays. Frozen bovine hippocampus was thawed and homogenized in 40 volumes of ice-cold 0.32 M sucrose. The suspension was centrifuged at 1000×g for 10 minutes at 4° C. The pellet was washed twice in assay buffer and reacted with radioactive ligand in presence or absence of propofol at 10−4 M final concentration. The amount of radioactivity remained on the Whatman filter following filtration of the reaction mix and two washes with assay buffer was determined using a liquid scintillation counter. Inhibition of radioactive ligand binding by propofol represents the competitive binding of propofol to the same site as the radioactive ligand. GABAA agonist site, GABAA α-1 site, GABAA α-5 site, GABAA α-6 site, and GABAA Cl channel were assayed using ^3H-GABA, ^3H-Flunitrazepam, ^3H-RY80, ^3H-Ro 15-4513, and ^3H-TBOB.
as §1

in vivo = conditions: male, Sprague-Dawley, rat, whole blood, iv
rats [3] = assay: Dose escalation toxicity, mortality and LD curves; conditions: rat; for calculated LD10: drugs in DMSO
Method: as §2

GABAA α-6 site = conditions: propofol at 10^-4 M, 3H-Ro 15-4513
Method: as §3

GABAA α-1 site = conditions: propofol at 10^-4 M, 3H-Flunitrazepam
Method: as §3

GABAA agonist site = conditions: propofol at 10^-4 M, 3H-GABA
Method: as §3

GABAA alpha 2 site = conditions: propofol at 10^-4 M
Method: as §3

[4] = increasing concentration, Hill plots

With `CC(C)c1cc(C(=O)c2ccc(F)cc2)cc(C(C)C)c1O` [CT7, (4-fluorophenyl)-(4-hydroxy-3,5-diisopropylphenyl)methanone] the “Anesthesia Activity (Time to awakening, min)” value (“Anesthesia Activity” for short) (rats [1]) was 34.2 ± 1.2, N = 2 min.

With `CC(C)c1cc(C(=O)c2ccc(C(F)(F)F)cc2)cc(C(C)C)c1O` [CT8, (4-(trifluoromethyl)phenyl)-(4-hydroxy-3,5-diisopropylphenyl)methanone] the “AUC, fold higher than that of propofol” value ([2]; i.v. bolus, ratio to propofol) was 317 ×, the “CL, fold slower than propofol” value ([2]; i.v. bolus, ratio to propofol) was 146 × and the “V1, fold smaller than that of propofol” value ([2]; i.v. bolus, ratio to propofol) was 375 ×. The “V2, fold smaller than that of propofol” value ([2]; i.v. bolus, ratio to propofol) was 11 ×, the “Vss, fold smaller than that of propofol” value ([2]; i.v. bolus, ratio to propofol) was 14 × and the “V1” value [2] was 0.04 L/kg. For the same molecule, the “V2” value [2] was 5.2 L/kg, the IC50 (GABAA Cl channel; [4]) was 0.57 µM and the Vd (in vivo) was 5.3 L/kg. For the same molecule, the clearance (in vivo) was 1.33 mL/min/kg, the “Mortality (%)” value (rats [3]; dose 1.427959 μmol/kg) was 0% and the “Mortality (%)” value (rats [3]; dose 2.855919 μmol/kg) was 0%. The “Mortality (%)” value (rats [3]; dose 14.2796 μmol/kg) was 0%, the “Mortality (%)” value (rats [3]; dose 28.55919 μmol/kg) was 10% and the “Mortality (%)” value (rats [3]; dose 57.11838 μmol/kg) was 40%. For the same molecule, the “Mortality (%)” value (rats [3]; dose 114.2368 μmol/kg) was 100%, the “Mortality (%)” value (rats [3]; dose 228.4735 μmol/kg) was 100% and the “calculated LD10” value (rats [3]) was 29 µmol/kg. The “Time to Awakening (h) [mean ± SD, (N)]” value (rats [1]; dose 1.43 μmol/kg) was 0.000 ± 0.000, (5) h, the “Time to Awakening (h) [mean ± SD, (N)]” value (rats [1]; dose 2.86 μmol/kg) was 0.000 ± 0.000, (5) h and the “Time to Awakening (h) [mean ± SD, (N)]” value (rats [1]; dose 14.28 μmol/kg) was 0.748 ± 0.094, (5) h. For the same molecule, the “Time to Awakening (h) [mean ± SD, (N)]” value (rats [1]; dose 28.10 μmol/kg) was 1.543 ± 0.085, (4) h, the “Time to Awakening (h) [mean ± SD, (N)]” value (rats [1]; dose 28.56 μmol/kg) was 1.728 ± 0.154 (5) h and the “Time to Awakening (h) [mean ± SD, (N)]” value (rats [1]; dose 57.12 μmol/kg) was 3.553 ± 0.166, (3) h. The “time rats were asleep at LD10” value (rats [1]) was 1.73 h.

In the case of `CC(C)c1cc(C(=O)c2ccc([N+](=O)[O-])cc2)cc(C(C)C)c1O` [CY61, (4-hydroxy-3,5-diisopropylphenyl)-(4-nitrophenyl)methanone], the IC50 (GABAA Cl channel; [4]) is reported as 0.5 µM and the “Anesthesia Activity” value (rats [1]) is reported as 57.2 ± 0.7, N = 5 min.

In the case of `CC(C)c1cc(C(=O)c2ccc(C(F)(F)F)c(F)c2)cc(C(C)C)c1O` [CY93, (3-fluoro-4-(trifluoromethyl)phenyl)-(4-hydroxy-3,5-diisopropylphenyl)methanone], the IC50 (GABAA Cl channel; [4]) is reported as 1.27 µM and the “Anesthesia Activity” value (rats [1]) is reported as 52.4 ± 37.7, N = 3 min.

For `CC(C)c1cc(C(=O)c2cccc(C(F)(F)F)c2)cc(C(C)C)c1O` [CY96, (3-(trifluoromethyl)phenyl)-(4-hydroxy-3,5-diisopropylphenyl)methanone], the IC50 (GABAA Cl channel; [4]) was 3.91 µM and the “Anesthesia Activity” value (rats [1]) was 5.5 ± 2.4, N = 5 min.

With `CC(C)c1cc(C(=O)c2cc(F)cc(C(F)(F)F)c2)cc(C(C)C)c1O` [CY97, (3-fluoro-5-(trifluoromethyl)phenyl)-(4-hydroxy-3,5-diisopropylphenyl)methanone] the IC50 (GABAA Cl channel; [4]) was 4.67 µM and the “Anesthesia Activity” value (rats [1]) was 1.9 ± 1.0, N = 5 min.

In the case of `CC(C)c1cc(C(=O)c2ccc3ccccc3c2)cc(C(C)C)c1O` [CY99, (4-hydroxy-3,5-diisopropylphenyl)-(naphthalen-2-yl)methanone], the “GABAA CI Channel Binding (IC50, μM)” value (GABAA Cl channel; [4]) is reported as “No activity” and the “Anesthesia Activity” value (rats [1]) is reported as 5.5 ± 3.4, N = 5 min.

With `CC(C)c1cc(C(=O)c2cc(C(F)(F)F)cc(C(F)(F)F)c2)cc(C(C)C)c1O` [CY104, (3,5-bis(trifluoromethyl)phenyl)-(4-hydroxy-3,5-diisopropylphenyl)methanone] the IC50 (GABAA Cl channel; [4]) was 21.3 µM and the “Anesthesia Activity” value (rats [1]) was 6.4 ± 2.8, N = 4 min.

For `CC(C)c1cc(C(=O)c2ccc(C(C)(C)C)cc2)cc(C(C)C)c1O` [CY120, (4-tert-butylphenyl)-(4-hydroxy-3,5-diisopropylphenyl)methanone], the “Anesthesia Activity” value (rats [1]) was 15.5 ± 9.2, N = 2 min.

For `CC(C)Cc1ccc(C(=O)c2cc(C(C)C)c(O)c(C(C)C)c2)cc1` [CY122, (4-hydroxy-3,5-diisopropylphenyl)-(4-isobutylphenyl)methanone], the “Anesthesia Activity” value (rats [1]) was 7.6 ± 1.8, N = 5 min.

For `CON=C(c1ccc(C(F)(F)F)cc1)c1cc(C(C)C)c(O)c(C(C)C)c1` [CY127, 4-((4-(trifluoromethyl)phenyl)-(methoxyimino)methyl)-2,6-diisopropylphenol], the “Anesthesia Activity” value (rats [1]) was 8.8 ± 5.8, N = 5 min.

With `CC(C)c1cc(Cc2ccc(C(F)(F)F)cc2)cc(C(C)C)c1O` [CY130, 4-(4-(trifluoromethyl)benzyl)-2,6-diisopropylphenol] the “Anesthesia Activity” value (rats [1]) was 8.2 ± 3.0, N = 5 min.

In the case of `CC(C)c1cc(C(O)c2ccc(C(F)(F)F)cc2)cc(C(C)C)c1O` (stereo not drawn) [CY135, 4-((4-(trifluoromethyl)phenyl)-(hydroxy)methyl)-2,6-diisopropylphenol], the “Anesthesia Activity” value (rats [1]) is reported as 15.0 ± 11.4, N = 5 min.

Molecule `CC(C)c1cc(C(=O)c2ccc(I)cc2)cc(C(C)C)c1O` [CY155, (4-hydroxy-3,5-diisopropylphenyl)-(4-iodophenyl)methanone] has an IC50 (GABAA Cl channel; [4]) of 0.57 µM.

With `COc1ccc(C(=O)c2cc(C(C)C)c(O)c(C(C)C)c2)cc1` [CY157, (4-hydroxy-3,5-diisopropylphenyl)-(4-methoxyphenyl)methanone] the “Anesthesia Activity” value (rats [1]) was 0.0 + 0.0, N = 5 min.

With `CC(C)c1cc(C(=O)c2ccc(C#N)cc2)cc(C(C)C)c1O` [CY175, (4-cyanophenyl)-(4-hydroxy-3,5-diisopropylphenyl)methanone] the “Anesthesia Activity” value (rats [1]) was 43.4 ± 23.5, N = 2 min.

With `CC(C)c1cc(C(=O)c2ccc(C(F)(F)F)nc2)cc(C(C)C)c1O` [CY176, (6-(trifluoromethyl)pyridin-3-yl)-(4-hydroxy-3,5-diisopropylphenyl)methanone] the “Anesthesia Activity” value (rats [1]) was 14.9 + 21.1, N = 2 min.

In the case of `CC(C)c1cc(C(=O)c2ccc(S(C)(=O)=O)cc2)cc(C(C)C)c1O` [CY177], the “Anesthesia Activity” value (rats [1]) is reported as 4.6 ± 1.5, N = 5 min.

For `CC(C)c1cc(C(=O)c2ccc(Br)cc2)cc(C(C)C)c1O` [CY178, (4-bromophenyl)-(4-hydroxy-3,5-diisopropylphenyl)methanone], the “Anesthesia Activity” value (rats [1]) was 66.6 ± 17.9, N = 5 min.

In the case of `CCCc1ccc(C(=O)c2cc(C(C)C)c(O)c(C(C)C)c2)cc1` [CY181, (4-hydroxy-3,5-diisopropylphenyl)-(4-propylphenyl)methanone], the “Anesthesia Activity” value (rats [1]) is reported as 9.0 + 20.1, N = 5 min.

In the case of `CC(C)c1cc(C(=O)c2ccc(Cl)cc2)cc(C(C)C)c1O` [CY182, (4-chlorophenyl)-(4-hydroxy-3,5-diisopropylphenyl)methanone], the “Anesthesia Activity” value (rats [1]) is reported as 67.7 ± 5.1, N = 3 min.

In the case of `CC(C)c1cccc(C(C)C)c1O` [Propofol, 2,6-diisopropylphenol], the “V1” value [2] is reported as 15.0 L/kg, the “V2” value [2] is reported as 58.0 L/kg and the IC50 (GABAA Cl channel; [4]) is reported as 4.86 µM. The “Percent Inhibition, chloride channel” value (GABAA Cl channel) was “only inhibited the binding of TBOB”, the “Percent Inhibition, chloride channel” value (GABAA Cl channel; listed as propofol) was 117.52% and the Vd (in vivo) was 73 L/kg. The clearance (in vivo) was 195 mL/min/kg, the “Mortality (%)” value (rats [3]; dose 5.609469 μmol/kg) was 0% and the “Mortality (%)” value (rats [3]; dose 28.04734 μmol/kg) was 10%. For the same molecule, the “Mortality (%)” value (rats [3]; dose 56.09469 μmol/kg) was 80%, the “Mortality (%)” value (rats [3]; dose 112.1894 μmol/kg) was 100% and the “calculated LD10” value (rats [3]) was 28 µmol/kg. For the same molecule, the “Time to Awakening (h) [mean ± SD, (N)]” value (rats [1]; dose 5.61 μmol/kg) was 0.000 ± 0.000, (5) h, the “Time to Awakening (h) [mean ± SD, (N)]” value (rats [1]; dose 28.05 μmol/kg) was 0.346 ± 0.149, (4) h and 0.350 ± 0.228 (5) h and the “Time to Awakening (h) [mean ± SD, (N)]” value (rats [1]; dose 56.09 μmol/kg) was 0.600 ± 0.000, (1) h. The “time rats were asleep at LD10” value (rats [1]) was 0.35 h, the “Percent Inhibition, alpha 6 site” value (GABAA α-6 site) was “No significant inhibition” and the “Percent Inhibition, alpha 6 site” value (GABAA α-6 site; listed as propofol) was −0.89%. The “Percent Inhibition, alpha 1 site” value (GABAA α-1 site) was “No significant inhibition”, the “Percent Inhibition, alpha 1 site” value (GABAA α-1 site; listed as propofol) was −14.31% and the “Percent Inhibition, agonist site” value (GABAA agonist site) was “No significant inhibition”. The “Percent Inhibition, agonist site” value (GABAA agonist site; listed as propofol) was 12.48%, the “Percent Inhibition, alpha 2 site” value (GABAA alpha 2 site) was “No significant inhibition” and the “Percent Inhibition, alpha 2 site” value (GABAA alpha 2 site; listed as propofol) was −15.58%.

From patent publication US7586008B2, “Propofol analogs, process for their preparation, and methods of use” (Abraxis Bioscience, Inc., priority 2003, dated 2009)
